Where a name gives a salt, the structure may show the parent alone.
Columns and labels:
[1] = In vivo bioavailability experiment: plasma aliskiren after a single i.v. or oral dose; details: male, Sprague-Dawley, rat, rats, plasma up to 24 h
Method: For comparison, aliskiren hemifumarate was dosed both i.v. (intravenous) and orally. For all experiment, the compounds were administrated to three individually weighted male Sprague-Dawley rats. For all po dosing, the dose was 25 μmole/kg in a dose volume of 8 ml/kg and the dose vehicle was 50% propylene glycol/50% pH 4.75 buffer (0.1M aqueous buffer of NaOAc/HOAc) by volume ratio. […] For the i.v. dosing of the compounds of invention, a vehicle of 45% PEG400/55% pH 4.75 buffer (0.1M aqueous buffer of NaOAc/HOAc) by volume ratio was used and the dose were 5 μmole/kg in a dose volume of 1.5 ml/kg. Male Sprague-Dawley rats were fasted for about 16-17 h before po dosing and fasting lasted about 2-3 h post-dose. Water was given ad libitum. The blood samples were taken at different time points up to 24 h. For i.v. dosing group, at 5 min, 15 min, 30 min, 1 h, 2 h, 4 h, 6 h, 8 h, 24 h. For oral doing group, at 15 min, 30 min, 1 h, 2 h, 4 h, […], 24 h. The blood samples were collected in heparinized tube and centrifuged at 3500 rpm for 5 min. The plasma samples were stored at about −20° C. for analysis.
After the work-up of the plasma samples, LC-MS/MS was used for the quantitation of the aliskiren and the compounds of the invention. Standard curves were made for aliskiren and the substances for study.

[2] = Chemical stability at pH 2.0; assay type: physicochemical; details: pH 2 aqueous buffer, 3 h incubation at 37° C., LCMS
Method: (§1) The compounds of the invention were studied for their chemical stability:
10 mM DMSO solution of the compound of the formula (I) was prepared. 10 μl of the solution was added to 1 ml of pH 2 aqueous buffer at 37° C. The solution was kept at 37° C. At each time point, a small aliquote was taken and the sample was analyzed by LCMS.

[3] = Chemical stability at pH 7.4; assay type: physicochemical; details: pH 7.4 aqueous phosphate buffer, 3 h incubation at 37° C., LCMS
Method: as §1
10 mM DMSO solution of the compound of the formula (I) was prepared. 10 μl of the solution was added to 1 ml of pH 7.4 aqueous phosphate buffer at 37° C. The solution was kept at 37° C. At each time points, a small aliquote was taken and the sample was analyzed by LCMS.

[4] = Clinical Pharmacokinetics, 2008, 47, 515-531; cited from earlier work
[5] = Stability of the isolated compound (observation in synthesis); assay type: physicochemical; details: after column chromatography, brown oil
Method: Chloromethyl (4S,5S)-5-((2S)-2-{[(3-amino-2,2-dimethyl-3-oxopropyl)amino]carbonyl}-3-methylbutyl)-4-{(2S)-2-[4-methoxy-3-(3-methoxypropoxy)benzyl]-3-methylbutyl}-1,3-oxazolidine-3-carboxylate (191 mg) and sodium iodide (135 mg) were mixed with dry acetonitrile and heated under stirring at 75° C. for 1 h 20 min. Full conversion according to LC-MS. Reaction mixture was mixed with water and extracted into DCM, washed with brine, dried over MgSO4. 186 mg of crude product was obtained, which was purified by column chromatography on silica gel (EtOAc) to give 72 mg of pure material as brown oil. […] LCMS: 748.3 [M+1]^+, 770.3 [M+Na]^+.

In the case of COCCCOc1cc(C[C@@H](C[C@H](N)[C@@H](O)C[C@H](C(=O)NCC(C)(C)C(N)=O)C(C)C)C(C)C)ccc1OC [Aliskiren hemifumarate], the AUC(0-t) ([1]; iv, i.v. 5 μmole/kg) is reported as 994 ± 162 ng·h/mL and the AUC(0-t) ([1]; po, p.o. 25 μmole/kg) is reported as 28 ± 20.5 ng·h/mL.
In the case of COCCCOc1cc(C[C@@H](C[C@H](N)[C@@H](O)C[C@H](C(=O)NCC(C)(C)C(N)=O)C(C)C)C(C)C)ccc1OC [Aliskiren, (2S,4S,5S,7S)—N-(2-Carbamoyl-2-methylpropyl)-5-amino-4-hydroxy-2,7-diisopropyl-8-[4-methoxy-3-(3-methoxypropoxy)phenyl]-octanamide, reference compound], the “Chemical stability pH 2 (decomposition)” value [2] is given as “A (Less than 5% decomposition after 3 h incubation at 37° C.)”, the “Chemical stability pH 7.4 (decomposition)” value [3] is given as “A (Less than 5% decomposition after 3 h incubation at 37° C.)” and the oral bioavailability [4] is given as “about 2.6%”.
For COCCCOc1cc(C[C@@H](C[C@H]2[C@H](C[C@H](C(=O)NCC(C)(C)C(N)=O)C(C)C)OCN2C(=O)OCOC(=O)C(C)(C)C)C(C)C)ccc1OC [Example 6, (4S,5S)-pivaloyloxymethyl 5-[(S)-2-(3-amino-2,2-dimethyl-3-oxopropylcarbamoyl)-3-methylbutyl]-4-{(S)-2-[4-methoxy-3-(methoxypropoxy)benzyl]-3-methylbutyl}oxazolidine-3-carboxylate], the “Chemical stability pH 2 (decomposition)” value [2] was “A (Less than 5% decomposition after 3 h incubation at 37° C.)” and the “Chemical stability pH 7.4 (decomposition)” value [3] was “B (Less than 25% decomposition after 3 h incubation at 37° C.)”.
In the case of COCCCOc1cc(C[C@@H](C[C@H]2[C@H](C[C@H](C(=O)NCC(C)(C)C(N)=O)C(C)C)OCN2C(=O)OCOC(=O)OC(C)C)C(C)C)ccc1OC [Example 12, (4S,5S)-(isopropoxycarbonyloxy)methyl 5-[(S)-2-(3-amino-2,2-dimethyl-3-oxopropylcarbamoyl)-3-methylbutyl]-4-{(S)-2-[4-methoxy-3-(methoxypropoxy)benzyl]-3-methylbutyl}oxazolidine-3-carboxylate], the “Chemical stability pH 2 (decomposition)” value [2] is reported as “A (Less than 5% decomposition after 3 h incubation at 37° C.)” and the “Chemical stability pH 7.4 (decomposition)” value [3] is reported as “B (Less than 25% decomposition after 3 h incubation at 37° C.)”.
For COCCCOc1cc(C[C@@H](C[C@H]2[C@H](C[C@H](C(=O)NCC(C)(C)C(N)=O)C(C)C)OCN2C(=O)OCI)C(C)C)ccc1OC [Example 14, Iodomethyl (4S,5S)-5-((2S)-2-{[(3-amino-2,2-dimethyl-3-oxopropyl)amino]carbonyl}-3-methylbutyl)-4-{(2S)-2-[4-methoxy-3-(3-methoxypropoxy)benzyl]-3-methylbutyl}-1,3-oxazolidine-3-carboxylate], the “stability of the compound” value [5] was “not stable and decomposes rather rapidly”.
With COCCCOc1cc(C[C@@H](C[C@H]2[C@H](C[C@H](C(=O)NCC(C)(C)C(N)=O)C(C)C)OCN2C(=O)OCOC(=O)C(C)(C)CO)C(C)C)ccc1OC [Example 27, [(3-hydroxy-2,2-dimethylpropanoyl)oxy]methyl (4S,5S)-5-((2S)-2-{[(3-amino-2,2-dimethyl-3-oxopropyl)amino]carbonyl}-3-methylbutyl)-4-{(2S)-2-[4-methoxy-3-(3-methoxypropoxy)benzyl]-3-methylbutyl}-1,3-oxazolidine-3-carboxylate] the “Chemical stability pH 2 (decomposition)” value [2] was “A (Less than 5% decomposition after 3 h incubation at 37° C.)” and the “Chemical stability pH 7.4 (decomposition)” value [3] was “A (Less than 5% decomposition after 3 h incubation at 37° C.)”.
For COCCCOc1cc(C[C@@H](C[C@H]2[C@H](C[C@H](C(=O)NCC(C)(C)C(N)=O)C(C)C)OCN2C(=O)OCOC(=O)C2COCOC2)C(C)C)ccc1OC [Example 32, [(1,3-dioxan-5-ylcarbonyl)oxy]methyl (4S,5S)-5-((2S)-2-{[(3-amino-2,2-dimethyl-3-oxopropyl)amino]carbonyl}-3-methylbutyl)-4-{(2S)-2-[4-methoxy-3-(3-methoxypropoxy)benzyl]-3-methylbutyl}-1,3-oxazolidine-3-carboxylate], the “Chemical stability pH 2 (decomposition)” value [2] was “A (Less than 5% decomposition after 3 h incubation at 37° C.)” and the “Chemical stability pH 7.4 (decomposition)” value [3] was “B (Less than 25% decomposition after 3 h incubation at 37° C.)”.
In the case of COCCCOc1cc(C[C@@H](C[C@H]2[C@H](C[C@H](C(=O)NCC(C)(C)C(N)=O)C(C)C)OCN2C(=O)OCOC(=O)OC2CCN(C)CC2)C(C)C)ccc1OC [Example 35, ({[(1-methylpiperidin-4-yl)oxy]carbonyl}oxy)methyl (4S,5S)-5-((2S)-2-{[(3-amino-2,2-dimethyl-3-oxopropyl)amino]carbonyl}-3-methylbutyl)-4-{(2S)-2-[4-methoxy-3-(3-methoxypropoxy)benzyl]-3-methylbutyl}-1,3-oxazolidine-3-carboxylate], the “Chemical stability pH 2 (decomposition)” value [2] is reported as “A (Less than 5% decomposition after 3 h incubation at 37° C.)” and the “Chemical stability pH 7.4 (decomposition)” value [3] is reported as “A (Less than 5% decomposition after 3 h incubation at 37° C.)”.
With COCCCOc1cc(C[C@@H](C[C@H]2[C@H](C[C@H](C(=O)NCC(C)(C)C(N)=O)C(C)C)OCN2C(=O)OCOC(=O)C2(N)CC2)C(C)C)ccc1OC.O=C(O)C(F)(F)F [Example 43, {[(1-aminocyclopropyl)carbonyl]oxy}methyl (4S,5S)-5-((2S)-2-{[(3-amino-2,2-dimethyl-3-oxopropyl)amino]carbonyl}-3-methylbutyl)-4-{(2S)-2-[4-methoxy-3-(3-methoxypropoxy)benzyl]-3-methylbutyl}-1,3-oxazolidine-3-carboxylate, trifluoroacetate] the “Chemical stability pH 2 (decomposition)” value [2] was “A (Less than 5% decomposition after 3 h incubation at 37° C.)” and the “Chemical stability pH 7.4 (decomposition)” value [3] was “B (Less than 25% decomposition after 3 h incubation at 37° C.)”.
For COCCCOc1cc(C[C@@H](C[C@H]2[C@H](C[C@H](C(=O)NCC(C)(C)C(N)=O)C(C)C)OCN2C(=O)OCOC(=O)c2cncn2C)C(C)C)ccc1OC [Example 44, {[(1-methyl-1H-imidazol-5-yl)carbonyl]oxy}methyl (4S,5S)-5-((2S)-2-{[(3-amino-2,2-dimethyl-3-oxopropyl)amino]carbonyl}-3-methylbutyl)-4-{(2S)-2-[4-methoxy-3-(3-methoxypropoxy)benzyl]-3-methylbutyl}-1,3-oxazolidine-3-carboxylate], the “Chemical stability pH 2 (decomposition)” value [2] was “A (Less than 5% decomposition after 3 h incubation at 37° C.)” and the “Chemical stability pH 7.4 (decomposition)” value [3] was “A (Less than 5% decomposition after 3 h incubation at 37° C.)”.
In the case of COCCCOc1cc(C[C@@H](C[C@H]2[C@H](C[C@H](C(=O)NCC(C)(C)C(N)=O)C(C)C)OCN2C(=O)OCOC(=O)C2(CN)CC2)C(C)C)ccc1OC [Example 53, {1-[({[((4S,5S)-5-((2S)-2-{[(3-amino-2,2-dimethyl-3-oxopropyl)amino]carbonyl}-3-methylbutyl)-4-{(2S)-2-[4-methoxy-3-(3-methoxypropoxy)benzyl]-3-methylbutyl}-1,3-oxazolidin-3-yl)carbonyl]oxy}methoxy)carbonyl]cyclopropyl}methanaminium trifluoroacetate], the “Chemical stability pH 2 (decomposition)” value [2] is reported as “A (Less than 5% decomposition after 3 h incubation at 37° C.)” and the “Chemical stability pH 7.4 (decomposition)” value [3] is reported as “C (Less than 50% decomposition after 3 h incubation at 37° C.)”.

Reference: US20130005730A1, “NOVEL 1,3-OXAZOLIDINE COMPOUNDS AND THEIR USE AS RENIN INHIBITORS” (priority 2009, published 2013)
